Source: US20210254056A1, “IDENTIFICATION AND TARGETED MODULATION OF GENE SIGNALING NETWORKS” (CAMP4 THERAPEUTICS CORPORATION, priority 2017, published 2021)

Tested on: hepatocytes
Assay: RNA-seq of hepatocytes treated with Phase III failure compounds
Details: hepatocytes
Description: RNA-seq was performed to determine the effects of the compounds on hepatocytes.
Significance was determined by the criteria of FPKM≥0.5, a log 2(fold-change)≥1, and a […].

SMILES: CCC(CC)[C@H](NC(C)=O)[C@@H]1[C@H](O)[C@@H](C(=O)O)C[C@H]1NC(=N)N.O.O.O [peramivir (trihydrate), peramivir]
- RNA-seq results, PTRH2 (gene PTRH2): 0.15
- RNA-seq results: PTRH2 (gene PTRH2): −0.47
- RNA-seq results, PUS1 (gene PUS1): 0.16
- RNA-seq results: PUS1 (gene PUS1): 0.29
- RNA-seq results, PXMP2 (gene PXMP2): 0.19
- RNA-seq results: PXMP2 (gene PXMP2): −0.29
- RNA-seq results, PXMP4 (gene PXMP4): 0.22
- RNA-seq results: PXMP4 (gene PXMP4): −0.05
- RNA-seq results, RAI1 (gene RAI1): 0.12
- RNA-seq results: RAI1 (gene RAI1): 0.38
- RNA-seq results, RANBP2 (gene RANBP2): −0.29
- RNA-seq results: RANBP2 (gene RANBP2): −0.16
- RNA-seq results, RASA1 (gene RASA1): −0.13
- RNA-seq results: RASA1 (gene RASA1): −0.26
- RNA-seq results, RBCK1 (gene RBCK1): 0.64
- RNA-seq results: RBCK1 (gene RBCK1): 0.26
- RNA-seq results, RBM10 (gene RBM10): 0.13
- RNA-seq results: RBM10 (gene RBM10): 0.11
- RNA-seq results, REN (gene REN): 0
- RNA-seq results: REN (gene REN): 0.46
- RNA-seq results, RMND1 (gene RMND1): −0.07
- RNA-seq results: RMND1 (gene RMND1): −0.47
- RNA-seq results, RMRP (gene RMRP): 0.54
- RNA-seq results: RMRP (gene RMRP): −1.76
- RNA-seq results, RNASEH2A (gene RNASEH2A): 0.54
- RNA-seq results: RNASEH2A (gene RNASEH2A): −0.19
- RNA-seq results, RORC (gene RORC): 0.4
- RNA-seq results: RORC (gene RORC): 0.58
- RNA-seq results, RPGRIP1L (gene RPGRIP1L): −0.2
- RNA-seq results: RPGRIP1L (gene RPGRIP1L): −0.12
- RNA-seq results, RRM2B (gene RRM2B): −0.53
- RNA-seq results: RRM2B (gene RRM2B): −0.34
- RNA-seq results, RSAD1 (gene RSAD1): 0.1
- RNA-seq results: RSAD1 (gene RSAD1): 0.11
- RNA-seq results, SAMHD1 (gene SAMHD1): −0.29
- RNA-seq results: SAMHD1 (gene SAMHD1): −0.43
- RNA-seq results, SC5D (gene SC5D): 0.05
- RNA-seq results: SC5D (gene SC5D): −0.56
- RNA-seq results, SCARB1 (gene SCARB1): 0.12
- RNA-seq results: SCARB1 (gene SCARB1): 0.11
- RNA-seq results, SCN9A (gene SCN9A): −0.56
- RNA-seq results: SCN9A (gene SCN9A): −0.09
- RNA-seq results, SDCCAG8 (gene SDCCAG8): −0.12
- RNA-seq results: SDCCAG8 (gene SDCCAG8): −0.10
- RNA-seq results, SEPN1 (gene SEPN1): 0.26
- RNA-seq results: SEPN1 (gene SEPN1): −0.02
- RNA-seq results, SERAC1 (gene SERAC1): −0.1
- RNA-seq results: SERAC1 (gene SERAC1): −0.34
- RNA-seq results, SERPINA1 (gene SERPINA1): −0.03
- RNA-seq results: SERPINA1 (gene SERPINA1): −0.16
- RNA-seq results, SERPING1 (gene SERPING1): 0.12
- RNA-seq results: SERPING1 (gene SERPING1): −0.27
- RNA-seq results, SERPINI1 (gene SERPINI1): −0.33
- RNA-seq results: SERPINI1 (gene SERPINI1): −0.37
- RNA-seq results, SETBP1 (gene SETBP1): −0.1
- RNA-seq results: SETBP1 (gene SETBP1): 0.05
- RNA-seq results, SFXN4 (gene SFXN4): 0.09
- RNA-seq results: SFXN4 (gene SFXN4): −0.17
- RNA-seq results, SLC2A1 (gene SLC2A1): 0.56
- RNA-seq results: SLC2A1 (gene SLC2A1): 0.08
- RNA-seq results, SLC2A2 (gene SLC2A2): −0.62
- RNA-seq results: SLC2A2 (gene SLC2A2): −0.24
- RNA-seq results, SLC2A9 (gene SLC2A9): 0.24
- RNA-seq results: SLC2A9 (gene SLC2A9): 0.16
- RNA-seq results, SLC4A4 (gene SLC4A4): −0.08
- RNA-seq results: SLC4A4 (gene SLC4A4): −0.30
- RNA-seq results, SLC6A6 (gene SLC6A6): 0.1
- RNA-seq results: SLC6A6 (gene SLC6A6): −0.29
- RNA-seq results, SLC6A8 (gene SLC6A8): 0.26
- RNA-seq results: SLC6A8 (gene SLC6A8): 0.27
- RNA-seq results, SLC6A20 (gene SLC6A20): 0.4
- RNA-seq results: SLC6A20 (gene SLC6A20): −0.44
- RNA-seq results, SLC7A7 (gene SLC7A7): −0.01
- RNA-seq results: SLC7A7 (gene SLC7A7): 0.03
- RNA-seq results, SLC10A1 (gene SLC10A1): −0.05
- RNA-seq results: SLC10A1 (gene SLC10A1): −0.14
- RNA-seq results, SLC10A3 (gene SLC10A3): 0.11
- RNA-seq results: SLC10A3 (gene SLC10A3): 0.57
- RNA-seq results, SLC10A5 (gene SLC10A5): −0.66
- RNA-seq results: SLC10A5 (gene SLC10A5): 0.46
- RNA-seq results, SLC10A7 (gene SLC10A7): −0.13
- RNA-seq results: SLC10A7 (gene SLC10A7): −0.54
- RNA-seq results, SLC11A2 (gene SLC11A2): 0.08
- RNA-seq results: SLC11A2 (gene SLC11A2): 0.04
- RNA-seq results, SLC19A1 (gene SLC19A1): 0.2
- RNA-seq results: SLC19A1 (gene SLC19A1): 0.05
- RNA-seq results, SLC19A2 (gene SLC19A2): 0.09
- RNA-seq results: SLC19A2 (gene SLC19A2): −0.17
- RNA-seq results, SLC19A3 (gene SLC19A3): 0
- RNA-seq results: SLC19A3 (gene SLC19A3): −0.16
- RNA-seq results, SLC22A1 (gene SLC22A1): 0.13
- RNA-seq results: SLC22A1 (gene SLC22A1): −0.12
- RNA-seq results, SLC22A5 (gene SLC22A5): 0.12
- RNA-seq results: SLC22A5 (gene SLC22A5): −0.16
- RNA-seq results, SLC25A1 (gene SLC25A1): 0.16
- RNA-seq results: SLC25A1 (gene SLC25A1): 0.33
- RNA-seq results, SLC25A10 (gene SLC25A10): 0.09
- RNA-seq results: SLC25A10 (gene SLC25A10): 0.12
- RNA-seq results, SLC25A12 (gene SLC25A12): 0.29
- RNA-seq results: SLC25A12 (gene SLC25A12): 0.27
- RNA-seq results, SLC25A13 (gene SLC25A13): 0.11
- RNA-seq results: SLC25A13 (gene SLC25A13): −0.17
- RNA-seq results, SLC25A15 (gene SLC25A15): −0.01
- RNA-seq results: SLC25A15 (gene SLC25A15): 0.03
- RNA-seq results, SLC25A19 (gene SLC25A19): −0.01
- RNA-seq results: SLC25A19 (gene SLC25A19): −0.19
- RNA-seq results, SLC25A20 (gene SLC25A20): −0.1
- RNA-seq results: SLC25A20 (gene SLC25A20): −0.32
- RNA-seq results, SLC25A29 (gene SLC25A29): 0.22
- RNA-seq results: SLC25A29 (gene SLC25A29): 0.65
- RNA-seq results, SLC25A32 (gene SLC25A32): −0.09
- RNA-seq results: SLC25A32 (gene SLC25A32): −0.32
- RNA-seq results, SLC27A2 (gene SLC27A2): −0.21
- RNA-seq results: SLC27A2 (gene SLC27A2): −0.36
- RNA-seq results, SLC27A5 (gene SLC27A5): 0.25
- RNA-seq results: SLC27A5 (gene SLC27A5): 0.13
- RNA-seq results, SLC29A3 (gene SLC29A3): 0.07
- RNA-seq results: SLC29A3 (gene SLC29A3): −0.02
- RNA-seq results, SLC33A1 (gene SLC33A1): 0.02
